Data published in US20260308691A1, “NOVEL USE OF AN INHIBITOR OF THE POLY-ADP RIBOSE POLYMERASE (PARP) IN THE TREATMENT OF CANCER” (TESARO, Inc., priority 2023, published 2026).
“Also recorded” adds a separate entry of the source.

Legend:
Format in all cases: cell-based, human
[1] = tested on: exosomal DNA (exoDNA) from PDOs; test: Length of DNA isolated from exosomes (exoDNA) of treated PDOs; conditions: for exoDNA length, sensitive PDO HNX29: HNX29 (sensitive, representative), exosomes collected after 6 days, compared to control
Protocol: A multi-modal assay was developed to test tumour cell response to niraparib and the effects of the treatment on immune cells. The assay is illustrated in FIG. 1. […] After 5 to 7 days (according to the proliferation rate of each PDO), one plate is treated with different doses of niraparib and DMSO for cytotoxicity evaluation. […] Following the treatment period, the media from one plate/condition (i.e. one DMSO and one Niraparib-treated plate) is collected for exosomes isolation and analysis of DNA length and the PDOs are processed to extract RNA for RNAseq and qRT-PCR (see the details in the qRT-PCR analysis section). For both niraparib and cisplatin treated samples (and the respective controls) PDOs are collected from the remaining plates and, after washing out BME, are plated into low adherence 96 well plates in a 1 to 6 ratio with Peripheral Blood Mononuclear Cells (PBMCs) pre-stimulated for a total of 4 days using anti-CD3 in combination anti-CD28 (as costimulatory signal) antibodies. The PDOs are co-cultured for 48 h after which all the cells are collected, the not infiltrating immune cells are washed off and the rest is either digested to single cells or fixed and embedded as whole tissue. For flow cytometry analysis the single cells are blocked, stained with antibody mix, fixed, and run on a flow cytometer. For imaging, the embedded organoids are labelled with different antibodies, cleared, and imaged.
Exosomes are obtaining by a series of centrifugations and ultra-centrifugations at increasing speeds of the media collected from the PDO cultures. Each sample is split into two tubes for the ultracentrifugation (for subsequent protein and genomic analysis).
DNA is extracted from exosomes via silica-membrane based nucleic acid purification by QIAamp Blood DNA extraction Kit (QIAGEN) and quantified by Qubit dsDNA HS kit. The Genomic DNA ScreenTape assay on the Agilent 4200 Tapestation system is used to assess the length of DNA and the R package bioanalyzeR exploited to obtain the DNA size distribution and number of molecules at different sizes. Part of the exosome DNA is sequenced using Oxford Nanopore Promethion for a drug treatment and a control experiment. For both samples, reads are then aligned to the human genome (hg38) using minimap2, and the following analyses performed. For every gene for which there are any aligned reads, the following is calculated: • Fragments per kilobase million (FPKM) as a normalised metric of representation of gene in the exosome dataset • The maximum fraction of total gene length that is covered by a single nanopore read. • The median fraction of total gene length that is covered by all nanopore reads that aligned to that gene • Coding and non-coding variants (for all bases for which there was a minimum depth of 20 reads) • Hypomethylation of CpG island of coding variants

[2] = tested on: PD-L1; test: PD-L1 expression in PDO tumour cells cocultured with activated PBMC (flow cytometry and multiplex imaging); conditions: resistant PDOs, co-cultured 48 h with activated PBMC
Protocol: A multi-modal assay was developed to test tumour cell response to niraparib and the effects of the treatment on immune cells. The assay is illustrated in FIG. 1. […] After 5 to 7 days (according to the proliferation rate of each PDO), one plate is treated with different doses of niraparib and DMSO for cytotoxicity evaluation. The remaining plates, PDOs are treated with niraparib (1.4 μM), cisplatin (4.7 μM), DMSO or saline solution (control) for 7 days. Following the treatment period, the media from one plate/condition (i.e. one DMSO and one Niraparib-treated plate) is collected for exosomes isolation and analysis of DNA length and the PDOs are processed to extract RNA for RNAseq and qRT-PCR (see the details in the qRT-PCR analysis section). […]
(§1) MACS buffer with mouse anti human CD3, CD8, CD4, CD56, CD226, CD45, TIGIT, PD1, PDL1, EpCAM, PVRIG, TIM3, CD96, CD14 and CD11b antibodies for one hour at 4° C. […] The cell-containing tubes are running on CytoFLEX (Beckman Coulter), and data analyzed with FlowJo software.
Multiplex fluorescence imaging assay is performed on a single 6-micron cryosection of fixed-frozen PDOs. […]

[3] = tested on: CD45 positive cells infiltrating PDOs; test: Flow cytometry of CD45 positive immune cells infiltrating PDOs after coculture with activated PBMC; conditions: 48 h coculture
Protocol: (§2) A multi-modal assay was developed to test tumour cell response to niraparib and the effects of the treatment on immune cells. The assay is illustrated in FIG. 1. […] After 5 to 7 days (according to the proliferation rate of each PDO), one plate is treated with different doses of niraparib and DMSO for cytotoxicity evaluation. The remaining plates, PDOs are treated with niraparib (1.4 μM), cisplatin (4.7 μM), DMSO or saline solution (control) for 7 days. Following the treatment period, the media from one plate/condition (i.e. one DMSO and one Niraparib-treated plate) is collected for exosomes isolation and analysis of DNA length and the PDOs are processed to extract RNA for RNAseq and qRT-PCR (see the details in the qRT-PCR analysis section). For both niraparib and cisplatin treated samples (and the respective controls) PDOs are collected from the remaining plates and, after washing out BME, are plated into low adherence 96 well plates in a 1 to 6 ratio with Peripheral Blood Mononuclear Cells (PBMCs) pre-stimulated for a total of 4 days using anti-CD3 in combination anti-CD28 (as costimulatory signal) antibodies. The PDOs are co-cultured for 48 h after which all the cells are collected, the not infiltrating immune cells are washed off and the rest is either digested to single cells or fixed and embedded as whole tissue. For flow cytometry analysis the single cells are blocked, stained with antibody mix, fixed, and run on a flow cytometer. For imaging, the embedded organoids are labelled with different antibodies, cleared, and imaged.
After 48 h of co-culture, PDOs are collected. The non-infiltrating immune cells are separated with a cell strainer while the organoids and infiltrating immune cells reduced to single cell level. Live dead exclusion is performed incubating the cells with Zombie dye for 30 minutes at room temperature. Following a blocking step in MACS buffer and anti-human and mouse IgG, staining is performed in
MACS buffer with mouse anti human CD3, CD8, CD4, CD56, CD226, CD45, TIGIT, PD1, PDL1, EpCAM, PVRIG, TIM3, CD96, CD14 and CD11b antibodies for one hour at 4° C. The cells are then fixed and DNA staining performed. The cell-containing tubes are running on CytoFLEX (Beckman Coulter), and data analyzed with FlowJo software.

[4] = tested on: Patient-derived organoids (PDOs), HNSCC and NSCLC; test: Cytotoxicity in patient-derived organoids (Cell titre glow dose-response curve); conditions: for PDO response to niraparib compared with cisplatin: resistant and sensitive PDOs, 6 days
Protocol: as §2
PDOs are seeded as single cells at a certain density (according to their growth rate) in 15 μl BME/dome.
1 dome per well in 24-wells plate with 1 ml of complete media/each well. […] 150 μl of the solution is collected from each well and transferred to a 96 well plate for the reading performed with Clariostar Plus (BMG Labtech). […]

[5] = tested on: EpCAM positive cells of PDOs; test: Tumour cell viability by flow cytometry (live cells within EpCAM positive cells) after coculture with PBMC; conditions: 1.4 μM niraparib or DMSO 7 days, 48 h coculture with PBMC
Protocol: as §2, with “The PDOs are co-cultured for 48 h after which all the cells are collected, the not infiltrating immune cells are washed off and the rest is either digested to single cells or fixed and embedded as whole tissue. For flow cytometry analysis the single cells are blocked, stained with antibody mix, fixed, and run on a flow cytometer. For imaging, the embedded organoids are labelled with different antibodies, cleared, and imaged.” left out
Cell viability is evaluated by flow cytometry analysis performed after 48 h of co-culture subsequent to 7 days of treatment with 1.4 μM Niraparib or DMSO (as control). […]

[6] = tested on: PD1; test: Flow cytometry of PD1 expression on CD4 positive cells cocultured with PDOs; conditions: niraparib-treated PDOs, 48 h coculture
Protocol: as §2, with “The PDOs are co-cultured for 48 h after which all the cells are collected, the not infiltrating immune cells are washed off and the rest is either digested to single cells or fixed and embedded as whole tissue. For flow cytometry analysis the single cells are blocked, stained with antibody mix, fixed, and run on a flow cytometer. For imaging, the embedded organoids are labelled with different antibodies, cleared, and imaged.” left out
as §1

SMILES | exoDNA length, sensitive PDO HNX29 [1] | exoDNA length, cisplatin-treated PDOs more resistant to niraparib ([1]; PDOs more resistant to niraparib, cisplatin-treated) | PD-L1 expression in cisplatin-treated tumour cells ([2]; vs saline) | infiltration of CD45 positive cells, cisplatin-treated resistant PDOs ([3]; PDOs classified as resistant to niraparib, cisplatin 4.7 μM 7 days, vs saline) | infiltration of CD45 positive cells, cisplatin-treated sensitive PDOs ([3]; PDOs classified as sensitive to niraparib, cisplatin 4.7 μM 7 days, vs saline) | PDO response to niraparib compared with cisplatin [4] | correlation of exoDNA length with niraparib IC50 ([1]; 6 HNSCC and 3 NSCLC PDOs) | threshold ratio (niraparib/DMSO) of exosomal DNA length ([1]; ROC curve vs IC50 value, 10 PDOs, sensitivity 100%, specificity 67%) | exoDNA length, niraparib-treated, versus niraparib sensitiveness ([1]; compared to exoDNA from DMSO-treated counterpart) | exoDNA length, niraparib-treated more resistant PDOs ([1]; resistant PDOs, compared to DMSO-treated counterpart) | PD-L1 expression in niraparib-treated tumour cells ([2]; vs DMSO) | infiltration of CD45 positive cells, niraparib-treated resistant PDOs ([3]; resistant PDOs (high niraparib IC50), niraparib 1.4 μM 7 days, vs DMSO) | infiltration of CD45 positive cells, niraparib-treated sensitive PDOs ([3]; sensitive PDOs (low niraparib IC50), niraparib 1.4 μM 7 days, vs DMSO) | IC50 ([4]; Homo sapiens, 168 h, read-out: IC50 threshold (inflection point) above which increased infiltration of CD45 positive cells is observed, PDOs from multiple tumour types, dose-response curve after 7 days of treatment) | threshold ratio (niraparib/DMSO) in tumour cell viability between sensitive and resistant cancers [5] | change / ratio (niraparib/DMSO) in tumour cell viability ([5]; sensitive vs resistant PDOs) | PD1 expression in infiltrating CD4 positive cells ([6]; infiltrating CD4 positive (T) cells) | PD1 expression in non-infiltrating CD4 positive cells ([6]; non-infiltrating CD4 positive cells)
N.N.[Cl][Pt][Cl] [cisplatin] | higher | shorter | upregulation of PDL1 expression | higher infiltration of CD45 pos cells; also recorded: increased infiltration of CD45 positive cells | decreased infiltration with CD45 positive cells | similar | – | – | – | – | – | – | – | – | – | – | – | –
NC(=O)c1cccc2cn(-c3ccc([C@@H]4CCCNC4)cc3)nc12 [niraparib] | higher | – | – | – | – | similar | exoDNA length correlates with the niraparib IC50 | 1.1 | increased with the increase of niraparib sensitiveness | shorter | upregulation of PD-L1 expression; also recorded: PDL1 upregulation; also recorded: high levels of PD-L1, or PD-L1 upregulation | increased in resistant samples; also recorded: increased infiltration of CD45 positive cells; also recorded: increased levels of CD45 positive cell infiltration | reduced in sensitive samples; also recorded: decreased infiltration with CD45 positive cells | 1000 to 1200 nM | 0.75 | higher ratio (naraparib/DMSO) in tumour cell viability; also recorded: only pronounced in cancers that are sensitive to the PARP inhibitor, niraparib | PD1 expression increases with the increased in IC50 value; also recorded: upregulate PD1 expression; also recorded: high levels of PD1 expression | PD1 expression negatively correlates with niraparib IC50 value
